Test [1] has as its system human umbilical vein endothelial cells (HUVECs). Description: Proliferation of HUVECs (CyQUANT kit). It is filed as cell-based. To be noted: 48 hours with peptide, negative control (untreated) = 100. As to the method: In order to investigate the effect of the 7 peptides prepared in Example 1 on blood vessel formation, human umbilical vein endothelial cells (HUVECs) were treated with the peptide of the present invention and their proliferation was observed.
HUVECs were cultured in endothelial cell basal medium-2 (EBM-2, Clonetics Co., San Diego, USA) containing 2% fetal bovine serum (FBS). The cultured HUVECs were transferred to a 96-well plate, with 1000 cells per each well. After culturing for 24 hours followed by addition of the 7 peptides of the peptide of the present invention to each well, they were further cultured for 48 hours. The cells treated with VEGF instead of the peptide of the present invention and those treated with nothing were cultured under the same condition, as positive control group and negative control group, respectively. Upon completion of the culturing, the degree of cell proliferation was measured using the CyQUANT kit (Invitrogen, USA).

For another test, the system named is HUVECs. Put plainly: Migration of HUVECs through polycarbonate filter chamber. In kind it is cell-based, human. To be noted: 37° C. for 10 hours, negative control (untreated) = 100. Here is the method:
In order to investigate the effect of the 7 peptides prepared in Example 1 on blood vessel formation, migration of HUVECs was measured.
The bottom portion of a chamber of a 24-well plate (Corning Costar, USA) having a polycarbonate filter with pores therebelow was coated with 0.5 mg/mL collagen type 1 ([…]). After adding EBM-2 containing the 7 peptides of the peptide of the present invention to the bottom portion of the chamber, HUVECs were inoculated at the upper portion of the chamber, with 1×10^5 cells per well. After incubation at 37° C. for 10 hours, the cells that had passed through the polycarbonate filter were fixed with methanol, stained with hematoxylin, and counted under a microscope.

As for “AGES (Pep_1 Artificial Peptide for Promotion of Angiogenesis)”, in test [1], the “Cell proliferation (%)” value was 109.6%. For the same substance, the “Cell migration (%)” value in the test on HUVECs was determined as 118.0%.

Take “AGESQK (Pep_11 Artificial Peptide for Promotion of Angiogenesis)”: in test [1], the “Cell proliferation (%)” value was 146.5%. For the same substance, the “Cell migration (%)” value with HUVECs was determined as 202.2%.

On to “KNAGDS (Pep_3 Artificial Peptide for Promotion of Angiogenesis)”, for which the “Cell proliferation (%)” value in test [1] came to 115.7%. The “Cell migration (%)” value in the test on HUVECs came out at 125.8%.

As for “KNAGHS (Pep_4 Artificial Peptide for Promotion of Angiogenesis)”, the “Cell proliferation (%)” value in test [1] came out at 119.6%. Moreover, the “Cell migration (%)” value in the test with HUVECs was determined as 135.5%.

Consider “PKAGES (Pep_2 Artificial Peptide for Promotion of Angiogenesis)”, for which the “Cell proliferation (%)” value in test [1] is 104.4%. Moreover, the “Cell migration (%)” value with HUVECs is reported as 159.5%.

As to “RQAGDS (Pep_5 Artificial Peptide for Promotion of Angiogenesis)”, in test [1], the “Cell proliferation (%)” value is listed as 207.5%. Besides, the “Cell migration (%)” value in the test with HUVECs came out at 165.4%.

Consider “RQAGHS (Pep_6 Artificial Peptide for Promotion of Angiogenesis)”, for which, in test [1], the “Cell proliferation (%)” value stood at 138.0%. Further, the “Cell migration (%)” value in the test on HUVECs is 138.6%.

“Vascular endothelial growth factor [VEGF]”: the “Cell proliferation (%)” value in test [1] is given as 166.0%. The “Cell migration (%)” value in the test on HUVECs turned out to be 146.3%.

The record behind these values is patent publication US9249185B2, “Peptides for promoting angiogenesis and an use thereof” (INDUSTRY-ACADEMIC COOPERATION FOUNDATION, SOOKMYUNG WOMEN'S …, priority 2010, dated 2016).
